Test results: PMC9962200, “Selectively Modified Lactose and N-Acetyllactosamine Analogs at Three Key Positions to Afford Effective Galectin-3 Ligands” (International Journal of Molecular Sciences, 2023)
Counter-ions that a name gives are not always drawn.

Target: T1, human galectin-3 (hGal-3) (Homo sapiens, UniProt P17931)
T1 construct: P.K. and P.B. prepared recombinant full-length hGal-3 and contributed to the ITC experiments; made in house
Assay: Isothermal titration calorimetry (ITC) of sugar analogs with recombinant hGal-3
Format: binding
Conditions: 27 °C; for −ΔH: binding enthalpy, lectin monomer units, errors 1–4%; for −ΔG: calculated from ΔG = -RT ln(Ka), errors less than 2%; for −TΔS: calculated from ΔG = ΔH − TΔS; for −TΔS / Kd: errors 1–7%; for n Sites/ Monomer: number of binding sites per hGal-3 monomer, errors less than 4%; for Kd / Ka: pH 7.2, 20 mM PBS buffer; for Kd: recombinant hGal-3, Kd calculated from 1/Ka; for Ka: recombinant hGal-3, errors 1–7%; for Relative Potencies: relative to methyl lactoside 1 = 1.0
Method: The Kd value of PNP LacNAc (20) was similar to that of its propargyl Lac analog 11.
ITC experiments were performed using a VP-ITC instrument from GE. Injections of 4 µL of carbohydrate solutions were added from a computer-controlled micro syringe at an interval of 4 min into the sample solution of hGal-3 (cell volume = 1.43 mL) with stirring at 350 rpm. Control experiments were performed by injecting the carbohydrates into a cell containing only buffer. The concentration range of hGal-3 was 90–130 µΜ, and the concentrations of the carbohydrates were 15–25 mM based on the dry weight molecular weights of the latter molecules. The concentration of hGal-3 was based on its molecular mass. Titrations were done at 27 °C (pH 7.2) using 20 mM PBS buffer. The experimental data were fitted to a theoretical titration curve using software supplied by the vendor, with ΔH (binding enthalpy in kcal mol^−1) (lectin monomer units), Ka (association constant) and n (number of binding sites per monomer), as adjustable parameters. The Kd (dissociation constant) was calculated from 1/Ka. The quantity c = Ka Mt (0), where Mt (0) is the initial macromolecule concentration, is of importance in titration microcalorimetry. All experiments were performed with c values 1 < c < 500. The instrument was calibrated using the calibration kit containing ribonuclease A (RNase A) and cytidine 2′-monophosphate (2′-CMP) supplied by the manufacturer. Thermodynamic parameters were calculated from the Gibbs Free Energy equation, ΔG = ΔH − TΔS = -RT ln(Ka), where ΔG, ΔH, and ΔS are the changes in free energy, enthalpy, and entropy of binding, respectively. T is the absolute temperature and R = 1.98 cal mol^−11 K^−1.

T1 sequence (P17931 whole entry): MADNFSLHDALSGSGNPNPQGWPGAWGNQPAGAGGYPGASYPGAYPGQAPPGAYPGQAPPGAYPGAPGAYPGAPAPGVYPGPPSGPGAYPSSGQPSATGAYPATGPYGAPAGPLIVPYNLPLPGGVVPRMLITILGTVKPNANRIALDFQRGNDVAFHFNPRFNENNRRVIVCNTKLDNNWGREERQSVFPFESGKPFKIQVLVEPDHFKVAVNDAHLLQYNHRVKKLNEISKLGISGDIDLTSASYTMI

Structure (SMILES) | −ΔH [kcal/mol] | −ΔG [kcal/mol] | −TΔS [kcal/mol] | n Sites/ Monomer | Kd [µM] | Ka | Relative Potencies
C#CCO[C@@H]1O[C@H](CO)[C@@H](O[C@@H]2O[C@H](CO)[C@H](O)[C@H](OS(=O)(=O)O)[C@H]2O)[C@H](O)[C@H]1O [Compound 11, Propargyl (3-O-Sulfo-β-D-Galactopyranosyl)-(1→4)-β-D-Glucopyranoside Sodium Salt] | 3.8 | 6.1 | -2.3 | 1.08 | 37 | 2.7 10^4 M^−1 | 2.5
C#CCOC1OC(CO)C(OC2OC(CO)C(O)C(OC3(C(=O)O)CC(O)C(NC(C)=O)C(C(O)C(O)CO)O3)C2O)C(O)C1NC(C)=O (stereo not drawn) [Compound 33] | 5.9 | 5.7 | 0.2 | 1.04 | 62.5 | 1.6 10^4 M^−1 | 1.5
CO[C@@H]1O[C@H](CO)[C@@H](O[C@@H]2O[C@H](CO)[C@H](O)[C@H](O)[C@H]2O)[C@H](O)[C@H]1O [Compound 1, methyl 4-O-β-D-galactopyranosyl-β-D-glucopyranoside, reference compound] | 3.9 | 5.5 | -1.6 | 1.08 | 91 | 1.1 10^4 M^−1 | 1.0
C#CCO[C@@H]1O[C@H](CO)[C@@H](O[C@@H]2O[C@H](CO)[C@H](O)[C@H](O)[C@H]2O)[C@H](O)[C@H]1NC(C)=O [Compound 27, Propargyl (β-D-Galactopyranosyl)-(1→4)-2-Acetamido-2-Deoxy-β-D-Glucopyranoside] | 4.2 | 6.0 | -1.8 | 1.10 | 38 | 2.6 10^4 M^−1 | 2.4
O=[N+]([O-])c1ccc(O[C@@H]2O[C@H](CO)[C@@H](O[C@@H]3O[C@H](CO)[C@H](O)[C@H](O)[C@H]3O)[C@H](O)[C@H]2O)cc1 [Compound 6, 4-Nitrophenyl (β-D-Galactopyranosyl)-(1→4)-β-D-Glucopyranoside] | 3.7 | 5.9 | -2.2 | 1.10 | 50 | – | 1.8
C#CCO[C@@H]1O[C@H](CO)[C@@H](O[C@@H]2O[C@H](CO)[C@H](O)[C@H](OCC(=O)O)[C@H]2O)[C@H](O)[C@H]1NC(C)=O [Compound 32, Propargyl (3-O-Carboxymethyl-β-D-Galactopyranosyl)-(1→4)-2-Acetamido-2-Deoxy-β-D-Glucopyranoside Sodium Salt] | 4.3 | 5.8 | – | 1.10 | 52.6 | 1.9 10^4 M^−1 | 1.7
C#CCO[C@@H]1O[C@H](CO)[C@@H](O[C@@H]2O[C@H](CO)[C@H](O)[C@H](O)[C@H]2O)[C@H](O)[C@H]1O [Compound 4, Propargyl (β-D-Galactopyranosyl)-(1→4)-β-D-Glucopyranoside] | 5.7 | 5.9 | -0.2 | 0.98 | 47.6 | 2.1 10^4 M^−1 | 1.9

These reach a lower Kd. Values come first.

−ΔH [kcal/mol] | −ΔG [kcal/mol] | −TΔS [kcal/mol] | n Sites/ Monomer | Kd [µM] | Ka | Relative Potencies | Structure (SMILES)
7.3 | 6.1 | 1.2 | 1.05 | 33.3 | 3.0 10^4 M^−1 | 2.7 | CC(=O)N[C@H]1[C@H](Oc2ccc([N+](=O)[O-])cc2)O[C@H](CO)[C@@H](O[C@@H]2O[C@H](CO)[C@H](O)[C@H](O)[C@H]2O)[C@@H]1O [Compound 20, 4-Nitrophenyl (β-D-Galactopyranosyl)-(1→4)-2-Acetamido-2-Deoxy-β-D-Glucopyranoside]
3.3 | 6.3 | -3.0 | 0.96 | 22.2 | 4.5 10^4 M^−1 | 4.1 | CC(=O)N[C@H]1[C@H](Oc2ccc([N+](=O)[O-])cc2)O[C@H](CO)[C@@H](O[C@@H]2O[C@H](CO)[C@H](O)[C@H](OS(=O)(=O)O)[C@H]2O)[C@@H]1O [Compound 23, 4-Nitrophenyl (3-O-Sulfo-β-D-Galactopyranosyl)-(1→4)-2-Acetamido-2-Deoxy-β-D-Glucopyranoside Sodium Salt]
6.0 | 6.4 | -0.4 | 0.97 | 20.4 | 4.9 10^4 M^−1 | 4.5 | O=[N+]([O-])c1ccc(O[C@@H]2O[C@H](CO)[C@@H](O[C@@H]3O[C@H](CO)[C@H](O)[C@H](OS(=O)(=O)O)[C@H]3O)[C@H](O)[C@H]2O)cc1 [Compound 12, 4-Nitrophenyl (3-O-Sulfo-β-D-Galactopyranosyl)-(1→4)-β-D-Glucopyranoside Sodium Salt]
5.2 | 6.6 | -1.4 | 1.07 | 14.7 | 6.8 10^4 M^−1 | 6.2 | C#CCO[C@@H]1O[C@H](CO)[C@@H](O[C@@H]2O[C@H](CO)[C@H](O)[C@H](OS(=O)(=O)O)[C@H]2O)[C@H](O)[C@H]1NC(C)=O [Compound 30, Propargyl (3-O-Sulfo-β-D-Galactopyranosyl)-(1→4)-2-Acetamido-2-Deoxy-β-D-Glucopyranoside Sodium Salt]
